Measured values published in patent US20260158021A1, “PREVENTION AND TREATMENT OF ORGAN FIBROSIS” (CORNELL UNIVERSITY, priority 2018, published 2026).

Key:
C-P4H = C-P4H abundance in stimulated human fibroblasts (immunofluorescence, Western blot); type: cell-based; settings: for C-P4H immunofluorescence intensity: human fibroblasts exposed to TGF-β or mast cell exosomes
Method: FIG. 9. Roxadustat inhibits the increase in C-[…] in stimulated human fibroblasts. Immunoexpression of prolyl-4-hydroxylase […]). […] FIG. 19A-19E. […] C. […] Actin was run as the loading control. […] All assays were performed in triplicate.

c-P4H tetramer = experiment: Non-denaturing Western blot of human lung fibroblast homogenates probed for c-P4H α-subunit; type: cell-based; settings: RXD 10 mg/ml; alone, +EXO, +TGF-β
Method: FIG. 4. […] Western blotting on a gradient gel was performed on human lung fibroblast homogenates in non-denaturing conditions and probed with anti-α-subunit monomer (60 kD). Tetramer is found at 240 kD at arrow.

[1] = test system: smooth muscle actin (SMA); experiment: Western blot of smooth muscle actin (SMA) in lung fibroblasts; type: cell-based, human; settings: Western blotting
human lung fibroblasts [2] = experiment: Fibroblast proliferation by total protein content of fibroblast cell lysates; type: cell-based; settings: +RXD+TGF-β; control 0.800, +TGF-β 1.138
Method: (§1) Human lung fibroblasts were exposed to TGF-β (10 ng/ml) or co-cultured with EXO([…]), and supernatants were collected for measurement of newly secreted collagen. […] Cell lysates were used to quantify total protein/well for normalization. Data are means±SEM of three separate experiments (n=3), each point run in triplicate. *P<0.05, ***P<0.001, ***P<0.0001.

human lung fibroblasts [3] = experiment: Collagen secretion by human lung fibroblasts (newly secreted collagen in supernatant, Sircol); type: cell-based; settings: for collagen secretion: RXD, normalized for total protein
Method: as §1
(§2) FIG. 19A-19E. […] C. […] Actin was run as the loading control. […] All assays were performed in triplicate.
(FIG. 3A). All values presented are normalized for total protein.

[4] = test system: bleomycin-induced pulmonary fibrosis; experiment: Bleomycin experimental mouse model of pulmonary fibrosis; type: in vivo, mice (C57BL/6J)
From the text: FIG. 11A-11B. In Vivo Murine Model of pulmonary fibrosis. […] Representative micrographs of Masson's trichrome-stained lungs from bleomycin-treated mice from the 14d time point. […] FIG. 12. […] Sal=Saline vehicle. FIG. 20A-20E. […] NS=not significant. N=5 mice/group. Scale bar=250 μm. […] Mice were sacrificed on day 21.

human lung fibroblasts [5] = experiment: Fibroblast migration/accumulation/foci formation in transwell plates; type: cell-based; settings: qualitative; +TGF-β (10 ng/ml) +RXD (10 mg/ml)
UUO kidney = experiment: Unilateral ureteral obstruction (UUO) model of renal fibrosis, Masson's trichrome collagen staining; type: in vivo, Mice C57BL/6J
Method: All animal treatments and experiments were approved by the Institutional Animal Care and Use Committee of Weill Cornell Medical College. Mice were anesthetized intraperitoneally with a cocktail of ketamine (90 mg/kg) and xylazine (4 mg/kg). Mice C57BL/6J) underwent right unilateral ureteral ligation with 4-0 silk suture through an abdominal midline incision under sterile conditions. Sham-operated control (CON) animals underwent identical operations, however, with manipulation of the right ureter only. Delivery of Roxadustat (10 mg/kg) on days 0, 2, 4, 6, 8, was administered IP. Mice were sacrificed on Day 14.
Kidneys were harvested and fixed in 10% neutral buffered formalin followed by embedding in paraffin. Sections (5 um) were collected and Masson's trichrome staining was performed using a kit (Richard-Allen Scientific) to detect collagen (blue stain). Slides of paraffinized tissue sections were deparaffinized, rehydrated, and washed in distilled water. Sections were subsequently stained using components from the trichrome kit and according to the manufacturer's protocol. After dehydrating and clearing in xylene, the sections were mounted with coverslips in Vectamount (Vector Laboratories). Tissue sections were examined with an inverted epifluorescence microscope (Nikon Eclipse TE 2000-U) interfaced to a SPOT Insight 2 megapixel color camera (Diagnostic Instruments).

[6] = test system: mast cells (human mastocytoma cells); experiment: Mast cell degranulation after high oxygen and recovery in room air (β-hexosaminadase, tryptase release); type: cell-based; settings: 72 h; 1 day high oxygen then 2 days room air (HO^rec) +RXD 10 mg/ml
Method: FIG. 5A-5C. […] C. […] NS=not significant
Mast cell degranulation was assessed by measuring the release of β-hexosaminadase (β-hex), a classic indicator of mast cell degranulation (FIG. 5A) and Tryptase (FIG. 5B). […] This protocol was designed to mimic the clinical protocol of giving IPF patients hospitalized with acute exacerbations high oxygen then followed by return to room air.

HLF = experiment: Proline hydroxylation (LC-MC of extracted proteins) and hydroxyproline content in HLF; type: cell-based, human
Method: as §2

Cc1nc(C(=O)NCC(=O)O)c(O)c2ccc(Oc3ccccc3)cc12 [RXD] was tested, and the “C-P4H abundance in Western blots” value (C-P4H; HLF lysates +MC-EXO and +TGFβ, actin loading control) was “decreased C-P4H abundance”, the C-P4H immunofluorescence intensity (C-P4H) was “inhibited the increase in C-P4H fluorescence intensity” and the C-P4H immunofluorescence intensity (C-P4H; listed as Roxadustat) was “inhibits the increase in C-P4H”. For the same molecule, the “α-subunit monomer abundance (60 kD band)” value (c-P4H tetramer) was “increased the α-subunit monomer abundance in all cases”, the SMA abundance [1] was “decreased” and the “total protein content of fibroblast cell lysates (fibroblast proliferation)” value (human lung fibroblasts [2]) was 0.828 μg/ml/well. The “secreted collagen (Sircol)” value (human lung fibroblasts [3]; FIG. 19E, HLF untreated and treated with +MC-EXO and +TGF-β) was “blocked”, the collagen secretion (human lung fibroblasts [3]; fibroblasts co-cultured with mast cell exosomes (40 g/ml)) was “inhibits collagen secretion” and the collagen secretion (human lung fibroblasts [3]; fibroblasts exposed to exogenous TGF-β1 (10 ng/ml)) was “inhibits collagen secretion”. For the same molecule, the collagen secretion (human lung fibroblasts [3]; untreated fibroblasts) was “inhibits collagen secretion”, the “severity of fibrosis, Masson's trichrome stained lungs” value ([4]; RXD 10 mg/kg days 7-19 every other day, sacrifice day 21) was “lessened the severity of fibrosis” and the lung hydroxyproline content ([4]; RXD 10 mg/kg days 7-19 every other day, sacrifice day 21, P<0.01 Bleo versus Bleo+RXD) was “significantly decreased”. For the same molecule, the “number of mast cells in vivo in pulmonary fibrosis” value ([4]; bleo vs bleo+RXD, P<0.05) was “reduced”, the “lung compliance (pulmonary function tests)” value ([4]; bleomycin-induced decrease) was “normalizes the bleomycin-induced decrease in lung compliance” and the “pulmonary fibrosis, Masson's trichrome-stained lungs” value ([4]; bleomycin-treated mice, 14d time point) was “reduced”. For the same molecule, the “fibroblast migration, accumulation, and foci formation” value (human lung fibroblasts [5]) was “prevents fibroblast migration, accumulation, and foci formation”, the “renal fibrosis, collagen staining of UUO kidney cortex and medulla” value (UUO kidney; Roxadustat 10 mg/kg IP days 0, 2, 4, 6, 8, Day 14) was “lessened the fibrosis” and the “quantified collagen (blue) staining, UUO kidney cortex and medulla” value (UUO kidney; pixel by pixel, P<0.0001 UUO vs UUO+RXD in cortex and in medulla) was “Reduces Fibrosis”. The “quantified collagen staining, control cortex and medulla with and without RXD” value (UUO kidney; sham control kidneys) was “no significant difference”, the “mast cell degranulation (β-hexosaminadase and mast cell tryptase in supernatants)” value [6] was “decreases mast cell degranulation” and the “proline hydroxylation in collagens 1 and 3” value (HLF; LC-MC analysis of HLF extracted proteins) was “prevented proline hydroxylation”. For the same molecule, the “hydroxyproline in HLFs” value (HLF; TGF-β-induced increase) was “inhibited the TGF-β-induced increase in hydroxyproline”.
